Assay results from US20250163104A1, “MACROCYCLIC IMMUNOMODULATORS” (priority 2021, published 2025).
pIC50: −log10 of the molar value. *1 amine or outer side, *2 acyl side, *3 side chain or, on linkers, in order; H or OH if unused. Where a SMILES comes first, the peptide text is derived from it. Bridges are numbered along the chain shown (N, C = ends). [ ]: non-standard residue; d: D form. The star is where a group is joined. ξ: configuration not given here. Phe(4-COOH) = N[C@@H](Cc1ccc(C(=O)O)cc1)C(=O)O; Bip = N[C@@H](Cc1ccc(-c2ccccc2)cc1)C(=O)O; Phe(4-CN) = N#Cc1ccc(C[C@H](N)C(=O)O)cc1; Phe(3-Me) = Cc1cccc(C[C@H](N)C(=O)O)c1; Phe(4-F) = N[C@@H](Cc1ccc(F)cc1)C(=O)O; Phe(4-Me) = Cc1ccc(C[C@H](N)C(=O)O)cc1; γGlu = O=C(O)[C@H](CCC(=O)[*:2])N[*:1]; Val(3-OH) = CC(C)(O)[C@H](N)C(=O)O; 4Pal = N[C@@H](Cc1ccncc1)C(=O)O; Cha = N[C@@H](CC1CCCCC1)C(=O)O; Ile(3ξ) = CCC(C)[C@H](N)C(=O)O; Thr(3ξ) = CC(O)[C@H](N)C(=O)O; dDab = NCC[C@@H](N)C(=O)O; Carboxymethyl = O=C(O)C*; Orn = NCCC[C@H](N)C(=O)O; Pra = C#CC[C@H](N)C(=O)O; Dab = NCC[C@H](N)C(=O)O

molecular target: T1, human PD-1 / PD-L1-Ig binding on Jurkat cell line over-expressing human PD-1 (Jurkat-PD-1) (Homo sapiens, UniProt Q15116); test: Jurkat-PD-1 Cell Binding High-Content Screening Assay (CBA); type: cell-based; conditions: Jurkat-PD-1 cells, PE-labeled PD-L1-Ig 20 nM final; read-out: Jurkat HPD1_PDL1 IC50
T1 construct: expressed in transfected cells; host or cells: Jurkat
T1 sequence (Q15116 25-288): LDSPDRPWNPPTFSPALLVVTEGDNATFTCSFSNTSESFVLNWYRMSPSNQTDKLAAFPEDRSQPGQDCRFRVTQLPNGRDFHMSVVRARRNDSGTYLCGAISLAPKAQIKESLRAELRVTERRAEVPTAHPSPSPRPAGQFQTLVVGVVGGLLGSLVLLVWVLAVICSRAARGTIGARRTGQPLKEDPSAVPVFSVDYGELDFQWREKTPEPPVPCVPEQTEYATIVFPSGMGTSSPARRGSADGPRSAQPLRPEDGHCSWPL
Procedure, shortened: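 Compounds were preincubated with Jurkat-hPD-1 cells in DMEM plus 10% fetal calf serum for 2 h at 37° C. Phycoerythrin-labeled PD-L1-Ig (20 nM final) was then added for 1 hour. Cells were fixed in 4% paraformaldehyde with Hoechst 33342, and bound fluorescence was quantified by high-content imaging.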

Q: `Cc1cccc(C[C@@H]2NC(=O)[C@H](CC(=O)O)NC(=O)[C@H](Cc3ccc(C(=O)O)cc3)NC(=O)[C@H](C(C)O)NC(=O)CSC[C@@H](C(=O)N[C@@H](CCN)C(N)=O)NC(=O)[C@H](CO)NC(=O)[C@H](C(C)(C)O)NC(=O)[C@H](CC3CCCCC3)NC(=O)[C@H](CCN)NC(=O)[C@@H](CC(C)C)NC(=O)[C@H](CCCN)NC(=O)[C@H](Cc3ccc(C(=O)O)cc3)NC(=O)[C@H](Cc3ccc(-c4ccccc4)cc3)NC(=O)[C@H](Cc3ccc(C(=O)O)cc3)NC2=O)c1` (stereo partly drawn) [Compound 2665] ({CH2CO}-[Thr(3ξ)][Phe(4-COOH)]D[Phe(3-Me)][Phe(4-COOH)][Bip][Phe(4-COOH)][Orn][dL][Dab][Cha][Val(3-OH)]SC[Dab]-NH2; thioether N-14) was tested. Which pIC50 did it give?
A: 8.47

Q: How did the pIC50 turn out when `CCC(C)[C@@H]1NC(=O)[C@H](Cc2ccc(-c3ccccc3)cc2)NC(=O)[C@H](Cc2ccc(C(=O)O)cc2)NC(=O)[C@H](Cc2cccc(C)c2)NC(=O)[C@H](CC(=O)O)NC(=O)[C@H](Cc2ccc(C(=O)O)cc2)NC(=O)[C@H](Cc2ccncc2)NC(=O)CSC[C@@H](C(=O)N[C@H](C)C(N)=O)NC(=O)[C@H](CCC(=O)O)NC(=O)[C@H](C(C)(C)O)NC(=O)[C@H](CC2CCCCC2)NC(=O)[C@H](CCN)NC(=O)[C@@H](CC(C)C)NC(=O)[C@H](Cc2cnc[nH]2)NC1=O` (stereo partly drawn) [Compound 2666] ({CH2CO}-[4Pal][Phe(4-COOH)]D[Phe(3-Me)][Phe(4-COOH)][Bip][Ile(3ξ)]H[dL][Dab][Cha][Val(3-OH)]EC[dA]-NH2; thioether N-14) was run?
A: 7.00

Q: How did the pIC50 turn out when `Cc1ccc(C[C@@H]2NC(=O)[C@H](C(C)O)NC(=O)CSC[C@@H](C(=O)N[C@@H](CCN)C(N)=O)NC(=O)[C@H](CO)NC(=O)[C@H](C(C)(C)O)NC(=O)[C@H](CC3CCCCC3)NC(=O)[C@H](CCN)NC(=O)[C@@H](CC(C)C)NC(=O)[C@H](CCCN)NC(=O)[C@H](Cc3ccc(OCC(=O)O)cc3)NC(=O)[C@H](Cc3ccc(-c4ccccc4)cc3)NC(=O)[C@H](Cc3ccc(OCC(=O)O)cc3)NC(=O)[C@H](Cc3cccc(C)c3)NC(=O)[C@H](CC(=O)O)NC2=O)cc1` (stereo partly drawn) [Compound 2667] ({CH2CO}-[Thr(3ξ)][Phe(4-Me)]D[Phe(3-Me)]Y(Carboxymethyl)[Bip]Y(Carboxymethyl)[Orn][dL][Dab][Cha][Val(3-OH)]SC[Dab]-NH2; thioether N-14) was run?
A: 7.94

Q: With `Cc1ccc(C[C@@H]2NC(=O)[C@H](C(C)O)NC(=O)CSC[C@@H](C(=O)N[C@@H](CCN)C(N)=O)NC(=O)[C@H](Cc3c[nH]cn3)NC(=O)[C@H](C(C)(C)O)NC(=O)[C@H](CC3CCCCC3)NC(=O)[C@H](CCN)NC(=O)[C@@H](CC(C)C)NC(=O)[C@H](CCCN)NC(=O)[C@H](Cc3ccc(OCC(=O)O)cc3)NC(=O)[C@H](Cc3ccc(-c4ccccc4)cc3)NC(=O)[C@H](Cc3ccc(OCC(=O)O)cc3)NC(=O)[C@H](Cc3cccc(C)c3)NC(=O)[C@H](CC(=O)O)NC2=O)cc1` (stereo partly drawn) [Compound 2671] ({CH2CO}-[Thr(3ξ)][Phe(4-Me)]D[Phe(3-Me)]Y(Carboxymethyl)[Bip]Y(Carboxymethyl)[Orn][dL][Dab][Cha][Val(3-OH)]HC[Dab]-NH2; thioether N-14) as the compound, how does the pIC50 read?
A: 8.04

Q: How did the pIC50 turn out when `Cc1cccc(C[C@@H]2NC(=O)[C@H](CC(=O)O)NC(=O)[C@H](Cc3ccc(F)cc3)NC(=O)[C@H](Cc3ccncc3)NC(=O)CSC[C@@H](C(=O)N[C@@H](CCN)C(N)=O)NC(=O)[C@H](Cc3c[nH]cn3)NC(=O)[C@H](C(C)(C)O)NC(=O)[C@H](CC3CCCCC3)NC(=O)[C@H](CCN)NC(=O)[C@@H](CC(C)C)NC(=O)[C@H](CCCN)NC(=O)[C@H](Cc3ccc(OCC(=O)O)cc3)NC(=O)[C@H](Cc3ccc(-c4ccccc4)cc3)NC(=O)[C@H](Cc3ccc(OCC(=O)O)cc3)NC2=O)c1` [Compound 2672] ({CH2CO}-[4Pal][Phe(4-F)]D[Phe(3-Me)]Y(Carboxymethyl)[Bip]Y(Carboxymethyl)[Orn][dL][Dab][Cha][Val(3-OH)]HC[Dab]-NH2; thioether N-14) was run?
A: 6.31

Q: How did the pIC50 turn out when `Cc1cccc(C[C@@H]2NC(=O)[C@H](CC(=O)O)NC(=O)[C@H](Cc3ccc(C#N)cc3)NC(=O)[C@H](C(C)O)NC(=O)CSC[C@@H](C(=O)N[C@@H](CCN)C(N)=O)NC(=O)[C@H](Cc3c[nH]cn3)NC(=O)[C@H](C(C)(C)O)NC(=O)[C@H](CC3CCCCC3)NC(=O)[C@H](CCN)NC(=O)[C@@H](CC(C)C)NC(=O)[C@H](CCCN)NC(=O)[C@H](Cc3ccc(OCC(=O)O)cc3)NC(=O)[C@H](Cc3ccc(-c4ccccc4)cc3)NC(=O)[C@H](Cc3ccc(OCC(=O)O)cc3)NC2=O)c1` (stereo partly drawn) [Compound 2673] ({CH2CO}-[Thr(3ξ)][Phe(4-CN)]D[Phe(3-Me)]Y(Carboxymethyl)[Bip]Y(Carboxymethyl)[Orn][dL][Dab][Cha][Val(3-OH)]HC[Dab]-NH2; thioether N-14) was run?
A: 8.24

Q: How did the pIC50 turn out when `COc1ccc(C[C@@H]2NC(=O)[C@H](C(C)O)NC(=O)CSC[C@@H](C(=O)N[C@@H](CCN)C(N)=O)NC(=O)[C@H](Cc3c[nH]cn3)NC(=O)[C@H](C(C)(C)O)NC(=O)[C@H](CC3CCCCC3)NC(=O)[C@H](CCN)NC(=O)[C@@H](CC(C)C)NC(=O)[C@H](CCCN)NC(=O)[C@H](Cc3ccc(OCC(=O)O)cc3)NC(=O)[C@H](Cc3ccc(-c4ccccc4)cc3)NC(=O)[C@H](Cc3ccc(OCC(=O)O)cc3)NC(=O)[C@H](Cc3cccc(C)c3)NC(=O)[C@H](CC(=O)O)NC2=O)cc1` (stereo partly drawn) [Compound 2674] ({CH2CO}-[Thr(3ξ)]Y(Me)D[Phe(3-Me)]Y(Carboxymethyl)[Bip]Y(Carboxymethyl)[Orn][dL][Dab][Cha][Val(3-OH)]HC[Dab]-NH2; thioether N-14) was run?
A: 8.21

Q: `Cc1cccc(C[C@@H]2NC(=O)[C@H](CC(=O)O)NC(=O)[C@H](Cc3ccc(C#N)cc3)NC(=O)[C@H](Cc3ccncc3)NC(=O)CSC[C@@H](C(=O)N[C@@H](CCN)C(N)=O)NC(=O)[C@H](Cc3c[nH]cn3)NC(=O)[C@H](C(C)(C)O)NC(=O)[C@H](CC3CCCCC3)NC(=O)[C@H](CCN)NC(=O)[C@@H](CC(C)C)NC(=O)[C@H](CCCN)NC(=O)[C@H](Cc3ccc(OCC(=O)O)cc3)NC(=O)[C@H](Cc3ccc(-c4ccccc4)cc3)NC(=O)[C@H](Cc3ccc(OCC(=O)O)cc3)NC2=O)c1` [Compound 2675] ({CH2CO}-[4Pal][Phe(4-CN)]D[Phe(3-Me)]Y(Carboxymethyl)[Bip]Y(Carboxymethyl)[Orn][dL][Dab][Cha][Val(3-OH)]HC[Dab]-NH2; thioether N-14) was tested. Which pIC50 did it give?
A: 6.10

Q: How did the pIC50 turn out when `Cc1cccc(C[C@@H]2NC(=O)[C@H](CC(=O)O)NC(=O)[C@H](Cc3ccc(OCC(=O)O)cc3)NC(=O)[C@H](Cc3ccc(F)cc3)NC(=O)CSC[C@@H](C(=O)N[C@H](CCN)C(N)=O)NC(=O)[C@H](CCC(=O)O)NC(=O)[C@H](C(C)(C)O)NC(=O)[C@H](CC3CCCCC3)NC(=O)[C@H](CCN)NC(=O)[C@@H](CC(C)C)NC(=O)[C@H](CCCN)NC(=O)[C@H](Cc3ccc(OCC(=O)O)cc3)NC(=O)[C@H](Cc3ccc(-c4ccccc4)cc3)NC(=O)[C@H](Cc3ccc(OCC(=O)O)cc3)NC2=O)c1` [Compound 2676] ({CH2CO}-[Phe(4-F)]Y(Carboxymethyl)D[Phe(3-Me)]Y(Carboxymethyl)[Bip]Y(Carboxymethyl)[Orn][dL][Dab][Cha][Val(3-OH)]EC[dDab]-NH2; thioether N-14) was run?
A: 8.07

Q: With `Cc1cccc(C[C@@H]2NC(=O)[C@H](CC(=O)O)NC(=O)[C@H](Cc3ccc(OCC(=O)O)cc3)NC(=O)[C@H](Cc3ccncc3)NC(=O)CSC[C@@H](C(=O)N[C@@H](CCN)C(N)=O)NC(=O)[C@H](CCC(=O)O)NC(=O)[C@H](C(C)(C)O)NC(=O)[C@H](CC3CCCCC3)NC(=O)[C@H](CCN)NC(=O)[C@@H](CC(C)C)NC(=O)[C@H](CCCN)NC(=O)[C@H](Cc3ccc(C(=O)O)cc3)NC(=O)[C@H](Cc3ccc(-c4ccccc4)cc3)NC(=O)[C@H](Cc3ccc(C(=O)O)cc3)NC2=O)c1` [Compound 2677] ({CH2CO}-[4Pal]Y(Carboxymethyl)D[Phe(3-Me)][Phe(4-COOH)][Bip][Phe(4-COOH)][Orn][dL][Dab][Cha][Val(3-OH)]EC[Dab]-NH2; thioether N-14) as the compound, how does the pIC50 read?
A: 8.22

Q: `C#CC[C@H](NC(=O)CC[C@H](NC(=O)[C@H](CCN)NC(=O)[C@@H]1CSCC(=O)N[C@@H](CCN)C(=O)N[C@@H](Cc2ccc(OCC(=O)O)cc2)C(=O)N[C@@H](CC(=O)O)C(=O)N[C@@H](Cc2cccc(C)c2)C(=O)N[C@@H](Cc2ccc(C(=O)O)cc2)C(=O)N[C@@H](Cc2ccc(-c3ccccc3)cc2)C(=O)N[C@@H](Cc2ccc(C(=O)O)cc2)C(=O)N[C@@H](CCCN)C(=O)N[C@H](CC(C)C)C(=O)N[C@@H](Cc2cnc[nH]2)C(=O)N[C@@H](CC2CCCCC2)C(=O)N[C@@H](C(C)(C)O)C(=O)N[C@@H](CCC(=O)O)C(=O)N1)C(=O)O)C(N)=O` [Compound 2678] ({CH2CO}-[Dab]Y(Carboxymethyl)D[Phe(3-Me)][Phe(4-COOH)][Bip][Phe(4-COOH)][Orn][dL]H[Cha][Val(3-OH)]EC[Dab][γGlu][Pra]-NH2; thioether N-14) was tested. Which pIC50 did it give?
A: 7.91

Q: `Cc1cccc(C[C@@H]2NC(=O)[C@H](CC(=O)O)NC(=O)[C@H](Cc3ccc(C(=O)O)cc3)NC(=O)[C@H](C(C)O)NC(=O)CSC[C@@H](C(=O)N[C@@H](CCN)C(N)=O)NC(=O)[C@H](Cc3cnc[nH]3)NC(=O)[C@H](C(C)(C)O)NC(=O)[C@H](CC3CCCCC3)NC(=O)[C@H](CCN)NC(=O)[C@@H](CC(C)C)NC(=O)[C@H](CCCN)NC(=O)[C@H](Cc3ccc(OCC(=O)O)cc3)NC(=O)[C@H](Cc3ccc(-c4ccccc4)cc3)NC(=O)[C@H](Cc3ccc(OCC(=O)O)cc3)NC2=O)c1` (stereo partly drawn) [Compound 2683] ({CH2CO}-[Thr(3ξ)][Phe(4-COOH)]D[Phe(3-Me)]Y(Carboxymethyl)[Bip]Y(Carboxymethyl)[Orn][dL][Dab][Cha][Val(3-OH)]HC[Dab]-NH2; thioether N-14) was tested. Which pIC50 did it give?
A: 8.72
